Results from patent publication US7407939B2, “Protein kinase inhibitors comprising ATP mimetics conjugated to peptides or peptidomimetics” (CureGenics Ltd., priority 2001, dated 2008).
pIC50: −log10 of the molar value. Read-outs that look alike come from different tables or passages of the source. *1 amine or outer side, *2 acyl side, *3 side chain or, on linkers, in order; H or OH if unused. Where a SMILES comes first, the peptide text is derived from it. Side-chain parts run from the residue outwards. [ ]: non-standard residue; d: D form. The star is where a group is joined. Isoquinoline5sulfonyl = O=S(=O)(c1cccc2cnccc12)*; Ethylenediamine = C(CN[*:2])N[*:1]; hLeu = CC(C)CC[C@H](N)C(=O)O; Nle = CCCC[C@H](N)C(=O)O; Dab = NCC[C@H](N)C(=O)O; Nva = CCC[C@H](N)C(=O)O; Abu = CC[C@H](N)C(=O)O; βAla = NCCC(=O)O

Assays:
PC-3 cells = assay: ssDNA apoptosis ELISA (induction of apoptosis in prostate cancer cells); type: cell-based; settings: 50 μM, optical density of treated divided by untreated cells
Procedure: Cells were assayed for Apoptosis using the ssDNA Apoptosis ELISA kit (Chemicon International Inc.). Cells were seeded in 96-well plates (5000 cells/well) and treated with different concentrations of the inhibitors. At different time point, plates were centrifuges at 200 g for 5 min, medium was removed and the cells were fixed with 80% methanol in PBS for 30 min at room temperature. Plates were dried by floating in a waterbath at 37° C. for 20 minutes. 50 μl of Formamide was added to each well and incubate at room temperature for 10 min. Plates were heated to 75° C. in a circulating waterbath for 10 min, cooled in refrigerator for 5 min, and then formamide was removed. Plates were blocked by 3% non-fat dry milk in distilled water (w/v) for 1 hr at 37° C. Blocking was removed and 100 μl of antibody mixture (primary monoclonal antibody to ssDNA and HRP-labelled anti-mouse IgM) was added to each well. Plates were monitored for colour development by ABTS using microplate reader at 405 nm.
DNA in apoptotic cells is sensitive to denaturation by formamide in contrast to necrotic cells. This sensitivity is due to changes in apoptotic cells chromatin. The specific denaturation was detected with monoclonal antibody to single stranded DNA. Using ssDNA Apoptosis ELISA kit (Chemicon International, Inc.) chimeric compounds were analyzed for their potential to induce apoptosis in PC-3 cells compared to TRAIL (TNF-related apoptosis-inducing ligand), a known apoptotic agent (R&D Systems, Inc.). Results are presented in values of apoptotic index which is calculated by dividing the optical density of treated and untreated cells.

PKB = target: T1, PKB (Homo sapiens, UniProt P31749); assay: PKB in vitro kinase activity assay (soluble His-HA-PKB / SPA bead screening); type: biochemical
T1 construct: His; HA; made in house

PKA = target: T2, PKA (Bos taurus, UniProt P00517); assay: In vitro PKA kinase activity assay (kemptide / SPA beads); type: biochemical;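 note: Cell-free assay of purified PKA catalytic subunit phosphorylating the 7-mer kemptide substrate, run in MOPS buffer with magnesium acetate and BSA, with blank wells lacking enzyme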
T2 construct: purchased Promega
Procedure: PKA enzyme was purchased from Promega. PKA activity is assayed on a 7-mer peptide, LRRASLG, known as kemptide. The assay is carried out in 96-well plates, in a final volume of 50 μl per well. The reaction mixture includes various concentrations of the inhibitor, 50 mM MOPS, 10 mM MgAc, 0.2 mg/ml BSA, 10 μM ATP, 20 μM Kemptide and 1 μCi γ^32P ATP. Reaction is started with addition of 15 μl of the catalytic subunit of PKA diluted in 0.1 mg/ml BSA, 0.4 U/well. Two blank wells without enzyme are included in every assay. The plates are agitated continuously at 30° C. for 10′ or at 27° C. for 1 hour. Reaction is stopped by addition of 12 μl 200 mM EDTA. 20 μl aliquots of the assay mixture are spotted onto 2 cm^2 phosphocellulose strips (e.g. Whatman P81) and immersed in 75 mM phosphoric acid (10 ml per sample). The phosphocellulose strips are washed 6 times. Washes are done in continuous swirling for 5 minutes, last wash is in acetone. After air drying the strips, radiation is measured by scintillation spectrometry.
Screening compounds for PKA inhibition was performed in 96-well plate using SPA beads, as described below for PKB with the following modifications; The enzyme substrate was 5 μM biotinylated-kemptide peptide (biotin-[sequence]). The kinase buffer was 50 mM MOPS pH 7, 0.2 mg/ml BSA, 10 mM Magnesium acetate. PKA (0.4 unit) diluted in 0.1 mg/ml BSA was added to each well.

[1] = chimeric PTR compounds (peptide conjugated to isoquinoline small molecule), read-out: PKB IC50
[2] = chimeric PTR compounds (peptide conjugated to isoquinoline small molecule), read-out: PKA IC50

T1 sequence (P31749 whole entry, species assumed): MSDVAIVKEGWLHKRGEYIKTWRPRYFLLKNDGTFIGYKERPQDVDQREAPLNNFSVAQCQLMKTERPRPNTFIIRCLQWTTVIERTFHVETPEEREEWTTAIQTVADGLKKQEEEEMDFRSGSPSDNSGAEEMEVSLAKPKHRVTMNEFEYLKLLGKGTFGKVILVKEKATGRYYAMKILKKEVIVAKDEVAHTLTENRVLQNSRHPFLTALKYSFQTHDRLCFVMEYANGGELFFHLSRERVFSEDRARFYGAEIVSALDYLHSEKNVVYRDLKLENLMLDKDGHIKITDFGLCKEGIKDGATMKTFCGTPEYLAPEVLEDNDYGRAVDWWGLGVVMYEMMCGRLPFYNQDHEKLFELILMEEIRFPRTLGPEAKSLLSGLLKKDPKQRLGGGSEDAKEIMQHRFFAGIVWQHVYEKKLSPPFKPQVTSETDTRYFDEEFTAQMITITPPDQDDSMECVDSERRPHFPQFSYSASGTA

Compound	Apoptotic index (48 hours) (PC-3 cells)	pIC50 (PKB; [1])	pIC50 (PKA; [2])	pIC50 (PKA; Table 2, chimeric compounds, read-out: Activity PKA)	pIC50 (PKB; FIG. 1, synergistic effect of conjugation, read-out: activity (PKB inhibition))
CCCC[C@H](NC(=O)[C@H](CCCNC(=N)N)NC(=O)[C@@H]1CCCN1C(=O)[C@@H](N)CCCNC(=N)N)C(=O)N[C@@H](CCC(=O)NCCC(=O)NCCNS(=O)(=O)c1cccc2cnccc12)C(=O)N[C@@H](CC)C(=O)N[C@@H](Cc1ccccc1)C(N)=O [compound 6138] (H-RPR[Nle]E([βAla-Ethylenediamine-Isoquinoline5sulfonyl])[Abu]F-NH2; N-terminus assumed)	3.6	5.70	–	–	–
CCCC[C@H](NC(=O)[C@H](CO)NC(=O)[C@H](CCC(=O)NCCC(=O)NCCNS(=O)(=O)c1cccc2cnccc12)NC(=O)[C@H](CCCC)NC(=O)[C@H](CCCNC(=N)N)NC(=O)[C@@H]1CCCN1C(=O)[C@@H](N)CCCNC(=N)N)C(N)=O [compound 6096] (H-RPR[Nle]E([βAla-Ethylenediamine-Isoquinoline5sulfonyl])S[Nle]-NH2; N-terminus assumed)	3.2	6.03	6.70	–	–
C[C@@H](O)[C@H](NC(=O)[C@H](CCCNC(=N)N)NC(=O)[C@@H]1CCCN1C(=O)[C@@H](N)CCCNC(=N)N)C(=O)N[C@@H](CCC(=O)NCCNS(=O)(=O)c1cccc2cnccc12)C(=O)N[C@@H](CO)C(=O)N[C@@H](Cc1ccccc1)C(N)=O [PTR 6016] (H-RPRTE([Ethylenediamine-Isoquinoline5sulfonyl])SF-NH2; N-terminus assumed)	3.4	6.00	7.00	6.30	6.05
Arg-Pro-Arg-Thr-Glu-(5-mercaptoaminopropyl-isoquinoline)-Ser-Phe [PTR 6104]	2.9	–	–	–	–
CCCC[C@H](NC(=O)[C@H](CCCNC(=N)N)NC(=O)[C@@H]1CCCN1C(=O)[C@@H](N)CCCNC(=N)N)C(=O)N[C@@H](CCC(=O)NCCC(=O)NCCNS(=O)(=O)c1cccc2cnccc12)C(=O)N[C@@H](CCN)C(=O)N[C@@H](Cc1ccccc1)C(N)=O [compound 6140] (H-RPR[Nle]E([βAla-Ethylenediamine-Isoquinoline5sulfonyl])[Dab]F-NH2; N-terminus assumed)	4.0	6.38	6.71	–	–
CCCC[C@H](NC(=O)[C@H](CCCNC(=N)N)NC(=O)[C@@H]1CCCN1C(=O)[C@@H](N)CCCNC(=N)N)C(=O)N[C@@H](CCC(=O)NCCC(=O)NCCNS(=O)(=O)c1cccc2cnccc12)C(=O)N[C@@H](CO)C(=O)N[C@@H](Cc1ccccc1)C(N)=O [compound 6086]	2.5	6.24	6.30	–	–
Arg-Pro-Arg-Thr-Glu-(bAla-5-mercaptoaminopropyl-isoquinoline)-Ser-Phe [PTR 6102]	2.7	–	–	–	–
C[C@@H](O)[C@H](NC(=O)[C@H](CCCNC(=N)N)NC(=O)[C@@H]1CCCN1C(=O)[C@@H](N)CCCNC(=N)N)C(=O)N[C@@H](CCC(=O)NCCC(=O)NCCNS(=O)(=O)c1cccc2cnccc12)C(=O)N[C@@H](CO)C(=O)N[C@@H](Cc1ccccc1)C(N)=O [compound 6082] (H-RPRTE([βAla-Ethylenediamine-Isoquinoline5sulfonyl])SF-NH2; N-terminus assumed)	2.6	5.26	6.70	–	–
Arg-Pro-Arg-Nle-Glu-(5-mercaptoaminopropyl-isoquinoline)-Ser-Phe [PTR 6136]	2.4	–	–	–	–
CCC[C@H](NC(=O)[C@H](CCCNC(=N)N)NC(=O)[C@@H]1CCCN1C(=O)[C@@H](N)CCCNC(=N)N)C(=O)N[C@@H](CCC(=O)NCCC(=O)NCCNS(=O)(=O)c1cccc2cnccc12)C(=O)N[C@@H](C)C(=O)N[C@@H](CCC(C)C)C(N)=O [compound 6152] (H-RPR[Nva]E([βAla-Ethylenediamine-Isoquinoline5sulfonyl])A[hLeu]-NH2; N-terminus assumed)	1.5	5.30	5.30	–	–
Arg-Pro-Arg-Nva-Glu-(5-mercaptoaminopropyl-isoquinoline)-Ser-Phe [PTR 6134]	2.2	–	–	–	–
